Experimental data taken from PMC7400207, “It Takes Two: Dimerization Is Essential for the Broad-Spectrum Predatory and Defensive Activities of the Venom Peptide Mp1a from the Jack Jumper Ant Myrmecia pilosula” (Biomedicines, 2020).
Where two headings read alike, the source gives them in different places. Marks after values point to notes of the source that are not given here.

Tests used:
[1] = test system: Haemonchus contortus; experiment: microbe, parasite or virus in culture; assay type: cell-based; conditions: for IC50: read-out: Anthelmintic Activity (IC50), inhibition of larval development; for Fold less active than levamisole (IC50 higher): larval development, drug-susceptible isolate
Method: Sheep were infected with H. contortus Kirby isolate (field isolate from the University of New England Kirby Research Farm in 1986; susceptible to all commercial anthelmintics) and housed at the Commonwealth Scientific and Industrial Research Organisation (CSIRO) FD McMaster Laboratory, Armidale, NSW. All animal procedures were approved by the FD McMaster Animal Ethics Committee, CSIRO (Approval Number AEC 17/12, approval date 15.6.2017). Eggs were prepared from overnight fecal collection as described. In brief, feces were filtered through mesh filters, settled, and supernatant removed by vacuum. Eggs were recovered by density centrifugation using 10 and 25% (w/v) sucrose solutions, centrifuged at 650× g for 7 min. Eggs were recovered from the interface of the two sucrose layers, rinsed with distilled water, sterilized with bleach, rinsed again, and diluted to 4500 eggs/mL. Tylosin tartrate (800 μg/mL) and amphotericin B (25.0 μg/mL) were added, and eggs were used immediately for larval development assays.
Assays were conducted using 96-well microtitre plates, with each well containing 50 μL of 2% agar, 20 μL of egg solution and 20 μL of peptide solution in water. The commercial anthelmintic levamisole (Sigma Aldrich) was used as a positive control (final 1% v/v). Negative controls contained equivalent volumes of water or DMSO (final 1% v/v). Plates were incubated at 26 °C for six days. After 24 h, each well was fed with 10 μL of a nutrient solution containing Escherichia coli XL1-Blue1 (grown overnight at 37 °C) and growth medium. The growth medium consisted of yeast extract (1% w/v), Earle’s salt solution (10% v/v), saline solution (0.9% NaCl, w/v), and sodium bicarbonate (1 mM) in Luria-Bertani medium (LB). Larvae were killed and stained with Lugol’s iodine solution after six days. Larvae that had developed to the infective L3 stage were counted, and the numbers in treated assay wells were expressed as a percentage of the number of infective L3 stage larvae in multiple control wells. Concentrations that caused 50% inhibition (IC50 values) were calculated from three experiments of duplicate assays.

[2] = test system: Drosophila melanogaster; experiment: Drosophila melanogaster microinjection assay; assay type: in vivo; conditions: intrathoracic injection, 50 nL, adult female flies, lethality at 24 h; three dose-response curves, ± SEM
Method: The insecticidal activity of the chemically synthesized 1a and analogues thereof were determined by injection into adult female D. melanogaster aged 3–5 days (mass 0.7–0.9 mg) as described previously. Analogues were dissolved in water and intrathoracically injected using pulled glass capillaries at a volume of 50 nL per fruit fly, and the results were compared against an equivalent injection volume of water alone. All injections were performed in the morning or early afternoon. At 24 h post-injection flies were monitored for lethality. Dose–response curves were constructed using 7–10 doses per analogue (each dose tested in eight flies) and three separate dose–response curves were constructed for each analogue. The lethality in the groups receiving the analogues were adjusted using the respective control group lethality using the Henderson-Tilton formula [20]. The median lethal dose (LD50) of each analogue was calculated based on the three dose–response curves using GraphPad Prism 8.0 [21]. One-way ANOVA followed by Dunnett’s multiple comparison test were used to compare LD50 values.

[3] = test system: human red blood cells; conditions: cited from earlier work
Method: (§1) Table 2 Summary of bioassay data for synthetic Mp1a and analogues, including effective concentration (EC50) for activation of F11 cells, concentrations that caused 50% inhibition (IC50) for inhibition of larval development of H. contortus; median lethal dose (LD50) for lethal insecticidal effects on D. melanogaster; concentrations required to induce 50% cell death (CC50) for effects on viability o | column: Hemolysis (HC50 µM) ^b

[4] = test system: F11 cells; experiment: FLIPR calcium assay, activation of F11 cells; assay type: cell-based; conditions: for Concentration at which cytolysis (rapid increase in fluorescence followed by decrease to or below baseline) was observed / EC50 / Neuronal Cell Activation (EC50): F11 cells, FLIPR; for EC50 / Neuronal Cell Activation (EC50): Calcium 4 dye, max-min fluorescence in 300 s after peptide addition, PSS with 0.1% BSA, mean ± SEM, triplicate; for EC50: read-out: Neuronal Cell Activation (EC50)
Method: F11 cells were cultured as previously described. Cells were maintained on Ham’s F12 media supplemented with 10% fetal bovine serum (FBS), 100 µM hypoxanthine, 0.4 µM aminopterin, and 16 µM thymidine (Hybri-MaxTM, Sigma Aldrich, North Ryde, Australia). Then, 384-well imaging plates (Corning) were seeded 48 h prior to imaging resulting in 90–95% confluence at imaging. Cells were incubated for 30 min with the Calcium 4 assay component A according to the manufacturer’s instructions (Molecular Devices, Sunnyvale, CA, USA) in physiological salt solution (PSS; composition in mM: 140 NaCl, 11.5 D-glucose, 5.9 KCl, 1.4 MgCl2, 1.2 NaH2PO4, 5 NaHCO3, 1.8 CaCl2, 10 HEPES) at 37°C. Fluorescence was measured using a fluorescent imaging plate reader (FLIPR^TETRA) equipped with a CCD camera (Excitation: 470–490 nm, Emission: […]) (Molecular Devices, Sunnyvale, CA, USA). Signals were read every second for 10 s before, and 300 s after the addition of peptides in PSS supplemented with 0.1% bovine serum albumin. All data are the mean ± SEM of assays performed in triplicate. Maximum–minimum fluorescence in the 300 s period after peptide addition was recorded as the response. Concentration–response data were fitted with a four-parameter Hill equation (variable slope) using GraphPad Prism 8 to obtain effective concentration (EC50) values.

[5] = test system: HEK293 cells; conditions: HEK293, 24 h, resazurin; cited from earlier work
Method: as §1, with “Cytotoxicity (CC50” for “Hemolysis (HC50”

[6] = H. contortus Kirby isolate, egg to infective L3, 6 days, 26 °C, three experiments of duplicate assays, ± SEM, for 1a the component at higher concentrations (about 90% of population)

Compound | IC50 ([1]; Haemonchus contortus, 144 h) [µM] | IC50 [1, 6] [µM] | Fold less active than levamisole (IC50 higher) [1] | Insecticidal Activity (LD50) [2] | Hemolysis (HC50) [3] [µM] | Concentration at which cytolysis (rapid increase in fluorescence followed by decrease to or below baseline) was observed [4] [µM] | EC50 [4] [µM] | Cytotoxicity (CC50) [5] [µM] | Neuronal Cell Activation (EC50) [4] | Fold less active than native Mp1a (1a), F11 cell activation ([4]; ratio of EC50 values)
c1ccc([C@H]2CN3CCSC3=N2)cc1 [levamisole, reference compound] | 0.68 | – | – | – | – | – | – | – | – | –
CC[C@H](C)[C@H](N)C(=O)N[C@@H](CC(=O)O)C(=O)N[C@@H](Cc1c[nH]c2ccccc12)C(=O)N[C@@H](CCCCN)C(=O)N[C@@H](CCCCN)C(=O)N[C@H](C(=O)N[C@@H](CC(=O)O)C(=O)N[C@@H](Cc1c[nH]c2ccccc12)C(=O)N[C@@H](CCCCN)C(=O)N[C@@H](CCCCN)C(=O)N[C@H](C(=O)N[C@@H](CO)C(=O)N[C@@H](CCCCN)C(=O)N[C@@H](CCCCN)C(=O)N[C@H](C(=O)N[C@H]1CSSC[C@@H](C(=O)N[C@@H](CCCCN)C(=O)N[C@@H](CCCCN)C(=O)N[C@H](C(=O)N[C@@H](CC(C)C)C(=O)N[C@@H](CCCCN)C(=O)N[C@@H](CCC(N)=O)C(N)=O)C(C)C)NC(=O)[C@H](C(C)C)NC(=O)[C@H]([C@@H](C)O)NC(=O)[C@H](CCCCN)NC(=O)[C@H](C)NC(=O)[C@H](CC(C)C)NC(=O)[C@H](C(C)C)NC(=O)[C@@H](NC(=O)[C@@H](NC(=O)CNC(=O)[C@H](CCCCN)NC(=O)[C@H](CO)NC(=O)[C@@H](NC(=O)[C@H](CC(C)C)NC(=O)CNC(=O)[C@@H](NC(=O)[C@@H](N)CC(C)C)[C@@H](C)CC)C(C)C)[C@@H](C)O)CSSC[C@@H](C(=O)N[C@@H](CCCCN)C(=O)N[C@@H](Cc2ccccc2)C(=O)N[C@@H](CC(C)C)C(N)=O)NC(=O)[C@H](C)NC(=O)[C@H](CCCCN)NC(=O)[C@H](CC(C)C)NC(=O)[C@H](CCSC)NC(=O)[C@H](C(C)C)NC(=O)[C@H](CCCCN)NC1=O)[C@@H](C)O)C(C)C)C(C)C [Analogue 1c] | – | 7.2 ± 0.1 | approximately 10 fold | 552.7 ± 18.2 ^a pmol/g | > 12 | ≥ 1 | 1.39 ± 0.34 | 0.7 | – | –
CC[C@H](C)[C@H](N)C(=O)N[C@@H](CC(=O)O)C(=O)N[C@@H](Cc1c[nH]c2ccccc12)C(=O)N[C@@H](CCCCN)C(=O)N[C@@H](CCCCN)C(=O)N[C@H](C(=O)N[C@@H](CC(=O)O)C(=O)N[C@@H](Cc1c[nH]c2ccccc12)C(=O)N[C@@H](CCCCN)C(=O)N[C@@H](CCCCN)C(=O)N[C@H](C(=O)N[C@@H](CO)C(=O)N[C@@H](CCCCN)C(=O)N[C@@H](CCCCN)C(=O)N[C@H](C(=O)N[C@H]1CSSC[C@@H](C(=O)N[C@@H](CCCCN)C(=O)N[C@@H](CCCCN)C(=O)N[C@H](C(=O)N[C@@H](CC(C)C)C(=O)N[C@@H](CCCCN)C(=O)N[C@@H](CCC(N)=O)C(N)=O)C(C)C)NC(=O)[C@H](C(C)C)NC(=O)[C@H]([C@@H](C)O)NC(=O)[C@H](CCCCN)NC(=O)[C@H](C(C)C)NC(=O)[C@H](CC(C)C)NC(=O)[C@H](C(C)C)NC(=O)[C@@H](NC(=O)[C@@H](NC(=O)CNC(=O)[C@H](CCCCN)NC(=O)[C@H](CO)NC(=O)[C@@H](NC(=O)[C@H](CC(C)C)NC(=O)CNC(=O)[C@@H](NC(=O)[C@@H](N)CC(C)C)[C@@H](C)CC)C(C)C)[C@@H](C)O)CSSC[C@@H](C(=O)N[C@@H](CCCCN)C(=O)N[C@@H](Cc2ccccc2)C(=O)N[C@@H](CC(C)C)C(N)=O)NC(=O)[C@H](C)NC(=O)[C@H](CCCCN)NC(=O)[C@H](C)NC(=O)[C@H](CCSC)NC(=O)[C@H](C(C)C)NC(=O)[C@H](CCCCN)NC1=O)[C@@H](C)O)C(C)C)C(C)C [Analogue 1d] | – | 9.5 ± 0.3 | approximately 10 fold | 578 ± 9.7 ^a pmol/g | > 12 | ≥ 1 | 3.38 ± 2.8 | 0.7 | – | –
H-IDWKKVDWKKVSKKTSKVMLKASKFL-NH2 [Analogue 3b] | – | 64.9 ± 6.3 | – | > 600 pmol/g | > 20 | – | – | > 20 | inactive | –
H-LIGLVSKGTSVLVKTVSKKVLKQ-NH2 [Analogue 4b] | – | 61.3 ± 4.4 | – | > 600 pmol/g | > 15 | – | – | > 15 | inactive | –
CC[C@H](C)[C@H](N)C(=O)N[C@@H](CC(=O)O)C(=O)N[C@@H](Cc1c[nH]c2ccccc12)C(=O)N[C@@H](CCCCN)C(=O)N[C@@H](CCCCN)C(=O)N[C@H](C(=O)N[C@@H](CC(=O)O)C(=O)N[C@@H](Cc1c[nH]c2ccccc12)C(=O)N[C@@H](CCCCN)C(=O)N[C@@H](CCCCN)C(=O)N[C@H](C(=O)N[C@@H](CO)C(=O)N[C@@H](CCCCN)C(=O)N[C@@H](CCCCN)C(=O)N[C@H](C(=O)N[C@H]1CSSC[C@H](NC(=O)[C@@H](NC(=O)CNC(=O)[C@H](CCCCN)NC(=O)[C@H](CO)NC(=O)[C@@H](NC(=O)[C@H](CC(C)C)NC(=O)CNC(=O)[C@@H](NC(=O)[C@@H](N)CC(C)C)[C@@H](C)CC)C(C)C)[C@@H](C)O)C(=O)N[C@@H](C(C)C)C(=O)N[C@@H](CC(C)C)C(=O)N[C@@H](C(C)C)C(=O)N[C@@H](CCCCN)C(=O)N[C@@H]([C@@H](C)O)C(=O)N[C@@H](C(C)C)C(=O)N[C@H](C(=O)N[C@@H](CCCCN)C(=O)N[C@@H](CCCCN)C(=O)N[C@H](C(=O)N[C@@H](CC(C)C)C(=O)N[C@@H](CCCCN)C(=O)N[C@@H](CCC(N)=O)C(N)=O)C(C)C)CSSC[C@@H](C(=O)N[C@@H](CCCCN)C(=O)N[C@@H](Cc2ccccc2)C(=O)N[C@@H](CC(C)C)C(N)=O)NC(=O)[C@H](C)NC(=O)[C@H](CCCCN)NC(=O)[C@H](CC(C)C)NC(=O)[C@H](CCSC)NC(=O)[C@H](C(C)C)NC(=O)[C@H](CCCCN)NC1=O)[C@@H](C)O)C(C)C)C(C)C [Analogue 2a] | – | 35.8 ± 1.9 | – | > 600 pmol/g | > 10 | ≥ 1 | 0.9 ± 0.08 | > 10 | – | equipotent
